Data set [1] relates to Human immunodeficiency virus 1. Description: Antiviral activity against HIV1 NL4-3 infected in human TZM-bl cells treated 4 hrs before infection measured after 48 hrs postinfection by beta-D-galactopyranoside assay. Type of data set: functional, organism-based. Particulars: Human immunodeficiency virus 1, NL4-3, TZM-bl.
Data set [2] deals with T1, Human immunodeficiency virus type 1 integrase (Human immunodeficiency virus 1, UniProt Q7ZJM1). Description: Inhibition of HIV1 integrase strand transfer activity expressed in Escherichia coli BL21 (DE3) by gel based assay in presence of magnesium.
A short description of data set [3]: Cytotoxicity against HIV1 NL4-3 infected human TZM-bl cells assessed as reduction in cell viability after 3 days by WST1 assay. The format is cell-based. Conditions: HIV1 NL4-3 infected TZM-bl cells.
A short description of data set [4]: Selectivity index, ratio of CC50 for human TZM-bl cells to EC50 for HIV1 NL4-3. Particulars: read-out: Ratio CC50/EC50. The format is toxicity, cell-based.
The target of data set [5] is T1, Human immunodeficiency virus type 1 integrase. Briefly: Inhibition of HIV1 integrase 3'-processing activity expressed in Escherichia coli BL21 (DE3) by gel based assay in presence of magnesium.

T1 sequence (Q7ZJM1 whole entry): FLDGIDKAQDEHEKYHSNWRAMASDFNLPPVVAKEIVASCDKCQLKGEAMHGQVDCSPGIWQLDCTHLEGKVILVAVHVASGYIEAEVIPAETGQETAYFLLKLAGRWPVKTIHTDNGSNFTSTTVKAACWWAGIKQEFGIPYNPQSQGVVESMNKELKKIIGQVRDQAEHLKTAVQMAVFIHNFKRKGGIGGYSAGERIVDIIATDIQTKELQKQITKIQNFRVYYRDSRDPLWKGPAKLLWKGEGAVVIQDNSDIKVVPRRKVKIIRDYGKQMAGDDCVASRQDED

In turn, `CCOC(=O)C(=O)CC(=O)c1cn(Cc2ccc(F)cc2)c2ccc(Br)cc2c1=O` came in with an EC50 in data set [1] of 17 µM. Besides, the IC50 in data set [2] was 0.12 µM; in data set [5] it was 78 µM. Besides, in data set [3], the CC50 at 72 h was greater than 1000 µM. In addition, the selectivity ratio in data set [4] was greater than 59.
As to `O=C(O)C(=O)CC(=O)c1cn(Cc2ccc(F)cc2)c2ccc(Br)cc2c1=O`, in data set [1], the concentration for a half-maximal effect (EC50) came out at 4 µM. In addition, the half-maximal inhibitory concentration (IC50) in data set [2] amounted to 0.03 µM; in data set [5] it was 1.6 µM. Moreover, in data set [3], the cytotoxic concentration (CC50) at 72 h was greater than 1000 µM. For the same compound, the selectivity ratio in data set [4] is greater than 250.

Source of the values: ChEMBL document CHEMBL1154015, “Structural and theoretical studies of [6-bromo-1-(4-fluorophenylmethyl)-4(1H)-quinolinon-3-yl)]-4-hydroxy-2-oxo-3-butenoïc acid as HIV-1 integrase inhibitor” (Bioorg Med Chem Lett, 2009).
